Among the data in patent EP2818471A1, “Nitrogen bicyclic compounds as inhibitors for Scyl1 and Grk5” (Max-Planck-Gesellschaft zur Förderung der Wissenschaften …, priority 2013, dated 2014) are Emax values, retold here.

The term Emax denotes the maximal effect, on the per cent scale that the assay sets.

This assay has as its system beta-TC6 cells. In words: Insulin HTRF assay, relative activity Ar normalized to sunitinib. The class given is cell-based. To be noted: Mus musculus, normalized to positive control sunitinib (5 µM = 100%), Table 10. An excerpt: For further screening of compounds derived from compounds described above for their ability to regulate insulin release an insulin HTRF® (Homogeneous Time-Resolved Fluorescence; Cisbio International, France) was used. This assay is based on two antibodies against insulin binding to different epitopes of insulin. One of these antibodies is coupled to Europium (Ab-Eu-Cryptate) and the other one to the fluorophore XL665 (Ab-XL665). Is insulin secreted into the supernatant of cell culture both antibodies can bind to insulin and come therefore into close proximity which allows upon excitation that energy transfer between (FRET) the long-life fluorescent donor Europium (cryptate) and the acceptors XL665. FRET increases proportionally with insulin concentration.
The automated assay protocol is as follows: • On day 1 15k beta-TC6 cells per well were seeded for 24 or 48 h in 50 µl complete medium. On day 2 or respective on day 3 the medium is removed and cells are washed with 60 µl 1xPBS and 20 µl induction buffer is added using BioTek washer. Subsequently, 10 µl Sunitininb (5 µM f.c.) or the test compound in induction buffer; 0.5% f.c. DMSO (CyBi-well) is transferred to the cells. The cells are then incubated at 37°C for 2, 3, 4h.
The HTRF assay is carried out using Greiner 384-well 784075 assay plates. First 10 µl supernatant is transferred from the cell plates in HTRF plates (CyBi-well). 10 µl of 0, 1, 2, and 4 ng/ml Insulin standard controls in assay medium is used as a control. To each well 10 µl of combined 1:25 Ab-XL665 (Acc) and 1:20 Ab-Eu-Cryptate (WellMate) are added and incubated for 120 min at RT in the dark. Finally HTRF is measured on ViewLux ultra high throughput microplate imager (PerkinElmer).
The evaluation software DataFactoty derives relative activities Ar according to the following equation: Ar = (V-R(0%control))/(R(100%control) -R(0%control)) × 100 [formula] […]
The activity of the compounds was classified according to their Ar (relative activity) into the following ranges: Ar ≥ 100% + + + +; 50% ≤ Ar < 100% + + +; 20% ≤ Ar < 50% + +; 10% < Ar < 20% + [formula] Table 10. Ar (relative activity) values of inventive compounds
For orientation: TR-FRET usually uses a lanthanide donor and a delayed reading to cut background.
The compound `O=C(NC1CC1)c1ccc(-c2cn3c(-c4ccccc4)cnc3cn2)cc1` [compound 299, N-cyclopropyl-4-(3-phenylimidazo[1,2-a]pyrazin-6-yl)benzamide] displayed an Emax of 20 to 50%.
Compound `CCOc1cccc(-c2cn3c(-c4ccc(CCC(=O)O)cc4)cnc3cn2)c1` [compound 328, 3-[4-[6-(3-ethoxyphenyl)imidazo[1,2-a]pyrazin-3-yl]phenyl]propanoic acid] showed an Emax of no less than 100%.
The same measure for `CSc1ccc(-c2cnc3cccnn23)cc1` [compound 72, 3-(4-methylsulfanylphenyl)imidazo[1,2-b]pyridazine]: 10 to 20%; for `O=S1(=O)CCN(CC#Cc2ccc3nnc(-c4cscn4)n3c2)CC1` [compound 232, 4-[3-(3-thiazol-4-yl-[1,2,4]triazolo[4,3-a]pyridin-6-yl)prop-2-ynyl]-1,4-thiazinane 1,1-dioxide]: 10 to 20%.
In the case of `CC(=O)Nc1ccc(-c2cnc3ccc(-c4ccc(S(C)(=O)=O)cc4)nn23)cc1` [compound 149, N-[4-[6-(4-methylsulfonylphenyl)imidazo[1,2-b]pyridazin-3-yl]phenyl]acetamide], the Emax fell in the range of 10 to 20%.
The same measure for `CCCNc1ccc2ncc(-c3ccc(C(=O)O)cc3)n2n1` [compound 20, 4-[6-(propylamino)imidazo[1,2-b]pyridazin-3-yl]benzoic acid]: 10 to 20%; for `Fc1cccc(-c2cn3c(-c4ccccc4)cnc3cn2)c1` [compound 297, 6-(3-fluorophenyl)-3-phenyl-imidazo[1,2-a]pyrazine]: 20 to 50%.
As to `COc1cc(OC)cc(-c2cnc3cnc(-c4cccc(OC(C)C)c4)cn23)c1` [compound 437, 3-(3,5-dimethoxyphenyl)-6-(3-isopropoxyphenyl)imidazo[1,2-a]pyrazine], the Emax was 20 to 50%.
The same measure for `O=C(NCCO)c1cccc(-c2cn3c(-c4cccs4)cnc3cn2)c1` [compound 420, N-(2-hydroxyethyl)-3-[3-(2-thienyl)imidazo[1,2-a]pyrazin-6-yl]benzamide]: 20 to 50%.
`c1cncc(CCNc2ccc3ncc(-c4ccc5ccccc5c4)n3n2)c1` [compound 25, 3-(2-naphthyl)-N-[2-(3-pyridyl)ethyl]imidazo[1,2-b]pyridazin-6-amine]: the Emax was in the range of 10 to 20%.
The same measure for `COc1ccc(-c2cnc3cnc(-c4ccc(N5CCN(C)CC5)cc4)cn23)cn1` [compound 381, 3-(6-methoxy-3-pyridyl)-6-[4-(4-methylpiperazin-1-yl)phenyl]imidazo[1,2-a]pyrazine]: 20 to 50%.
Then `CN(C)c1cccc(-c2ccc3nnc(-c4cscn4)n3c2)c1` [compound 227, N,N-dimethyl-3-(3-thiazol-4-yl-[1,2,4]triazolo[4,3-a]pyridin-6-yl)aniline], with 50 to 100%.
The same measure for `Cc1ccccc1-c1cnc2cnc(-c3cccs3)cn12` [compound 405, 3-(o-tolyl)-6-(2-thienyl)imidazo[1,2-a]pyrazine]: 10 to 20%; for `CN(C)c1ccc(-c2ccc3ncc(-c4ccc(CO)cc4)n3n2)cc1` [compound 129, [4-[6-(4-dimethylaminophenyl)imidazo[1,2-b]pyridazin-3-yl]phenyl]methanol]: 50 to 100%; for `CN(C)C(=O)c1ccc(-c2ccc3nnc(-c4cccc(C(F)(F)F)c4)n3c2)cc1` [compound 213, N,N-dimethyl-4-[3-[3-(trifluoromethyl)phenyl]-[1,2,4]triazolo[4,3-a]pyridin-6-yl]benzamide]: 20 to 50%.
For `COc1cc(-c2nnc3ccc(-c4ccccc4C)cn23)ccc1O` [compound 218, 2-methoxy-4-[6-(o-tolyl)-[1,2,4]triazolo[4,3-a]pyridin-3-yl]phenol], the Emax lay within 50 to 100%.
`Clc1cccc(-c2nnc3ccc(-c4ncccn4)cn23)c1` [compound 204, 3-(3-chlorophenyl)-6-pyrimidin-2-yl-[1,2,4]triazolo[4,3-a]pyridine] displayed an Emax of 10 to 20%.
With `COc1cc(-c2cnc3cnc(-c4ccc(N)nc4)cn23)ccc1O` [compound 396, 4-[6-(6-amino-3-pyridyl)imidazo[1,2-a]pyrazin-3-yl]-2-methoxy-phenol], the Emax lay within 20 to 50%.
Then `c1ccc(Cn2cc(-c3cn4c(-c5ccc6c(c5)OCO6)cnc4cn3)cn2)cc1` [compound 307, 3-(1,3-benzodioxol-5-yl)-6-(1-benzylpyrazol-4-yl)imidazo[1,2-a]pyrazine], with 50 to 100%; and `CN(C)c1ccc(-c2cnc3cnc(-c4ccc(NCCN5CCOCC5)nc4)cn23)cc1` [compound 282, 5-[3-(4-dimethylaminophenyl)imidazo[1,2-a]pyrazin-6-yl]-N-(2-morpholinoethyl)pyridin-2-amine], with 50 to 100%.
The compound `COc1ccc(CNc2ccc3ncc(-c4ccc(OC)cc4OC)n3n2)cc1` [compound 39, 3-(2,4-dimethoxyphenyl)-N-[(4-methoxyphenyl)methyl]imidazo[1,2-b]pyridazin-6-amine] displayed an Emax of 10 to 20%.
Consider `CC(C)(C)c1ccc(-c2cnc3cnc(-c4ccc(N)nc4)cn23)cc1` [compound 408, 5-[3-(4-tert-butylphenyl)imidazo[1,2-a]pyrazin-6-yl]pyridin-2-amine], for which the Emax lay in the range of 10 to 20%.
`CC(C)N1CCN(c2ccc(-c3cn4c(-c5ccc(O)cc5)cnc4cn3)cc2)CC1` [compound 325, 4-[6-[4-(4-isopropylpiperazin-1-yl)phenyl]imidazo[1,2-a]pyrazin-3-yl]phenol] came in with a maximum response (Emax) of 20 to 50%.
In turn, `CN(C)CCCOc1ccc(-c2cn3c(-c4ccc(N(C)C)cc4)cnc3cn2)cn1` [compound 281, 4-[6-[6-[3-(dimethylamino)propoxy]-3-pyridyl]imidazo[1,2-a]pyrazin-3-yl]-N,N-dimethyl-aniline] registered an Emax of 50 to 100%.
Compound `Fc1ccc(-c2cnc3cnc(-c4ccco4)cn23)cc1Cl` [compound 351, 3-(3-chloro-4-fluoro-phenyl)-6-(2-furyl)imidazo[1,2-a]pyrazine] yielded an Emax of 20 to 50%.
The same measure for `CC(=O)c1ccc(-c2cn3c(-c4ccc(C(=O)NC5CC5)cc4)cnc3cn2)s1` [compound 434, 4-[6-(5-acetyl-2-thienyl)imidazo[1,2-a]pyrazin-3-yl]-N-cyclopropyl-benzamide]: 20 to 50%; for `COc1cc(-c2cnc3cnc(-c4ccc(OCCCN(C)C)nc4)cn23)ccc1O` [compound 391, 4-[6-[6-[3-(dimethylamino)propoxy]-3-pyridyl]imidazo[1,2-a]pyrazin-3-yl]-2-methoxy-phenol]: 20 to 50%; for `CS(=O)(=O)Nc1cccc(-c2cnc3ccc(Cc4ccc(F)cc4)nn23)c1` [compound 159, N-[3-[6-[(4-fluorophenyl)methyl]imidazo[1,2-b]pyridazin-3-yl]phenyl]methanesulfonamide]: 10 to 20%.
Regarding `CS(=O)(=O)c1cccc(-c2ccc3nnc(-c4cccc(OC(F)(F)F)c4)n3c2)c1` [compound 193, 6-(3-methylsulfonylphenyl)-3-[3-(trifluoromethoxy)phenyl]-[1,2,4]triazolo[4,3-a]pyridine], the Emax lay within 50 to 100%.
As to `Cn1cc(-c2ccc3nnc(-c4ccc5c(c4)OCO5)n3c2)cn1` [compound 174, 3-(1,3-benzodioxol-5-yl)-6-(1-methylpyrazol-4-yl)-[1,2,4]triazolo[4,3-a]pyridine], the maximal effect (Emax) lay in the range of 50 to 100%.
Regarding `CCOc1cccc(-c2cnc3cccnn23)c1` [compound 76, 3-(3-ethoxyphenyl)imidazo[1,2-b]pyridazine], the Emax was in the range of 10 to 20%.
In turn, `c1cc(-c2cn3c(-c4ccc5c(c4)OCO5)cnc3cn2)cs1` [compound 301, 3-(1,3-benzodioxol-5-yl)-6-(3-thienyl)imidazo[1,2-a]pyrazine] registered a maximal response (Emax) of 50 to 100%.
The same measure for `CC(=O)c1cccc(-c2cnc3cnc(-c4ccc(C(=O)NCCN(C)C)cc4)cn23)c1` [compound 411, 4-[3-(3-acetylphenyl)imidazo[1,2-a]pyrazin-6-yl]-N-(2-dimethylaminoethyl)benzamide]: 20 to 50%.
The same measure for `O=C(NCCO)c1ccc(-c2cn3c(-c4ccsc4)cnc3cn2)cc1` [compound 321, N-(2-hydroxyethyl)-4-[3-(3-thienyl)imidazo[1,2-a]pyrazin-6-yl]benzamide]: 10 to 20%.
The same measure for `COc1ccc(-c2cn3c(-c4ccc(N(C)C)cc4)cnc3cn2)cn1` [compound 288, 4-[6-(6-methoxy-3-pyridyl)imidazo[1,2-a]pyrazin-3-yl]-N,N-dimethyl-aniline]: 50 to 100%.
`CS(=O)(=O)Nc1cccc(-c2cn3c(-c4ccc(Oc5ccccc5)cc4)cnc3cn2)c1` [compound 403, N-[3-[3-(4-phenoxyphenyl)imidazo[1,2-a]pyrazin-6-yl]phenyl]methanesulfonamide]: the Emax was 20 to 50%.
